For 8 compounds, TGI results are on record in PubChem BioAssay (NCI).

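Results reflect a 48-hour exposure of cells in 96-well plates to compound at five concentrations. The concentration for full growth arrest is given as TGI.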

Some test systems named below: HCT-15 colon; OVCAR-3 ovarian; CCRF-CEM leukemia; OVCAR-8 ovarian; UO-31 renal; A498 renal; SNB-75 CNS; HT29 colon; NCI-H522 lung; SK-MEL-28 melanoma; NCI/ADR-RES ovarian; M14 melanoma; IGROV1 ovarian; KM12 colon; SK-OV-3 ovarian; SF-539 CNS; SW-620 colon; NCI-H460 lung; SK-MEL-2 melanoma.
Test in all cases: NCI anticancer screen, dose series, 48 h

With `CC1=NN(c2nc(N)nc(C/C(N)=N/O)n2)C(C)(C)C1`, the TGI with HCT-15 colon, in the test with OVCAR-3 ovarian, in the test on CCRF-CEM leukemia, in the test with OVCAR-8 ovarian, in the test with UO-31 renal and in the test with A498 renal was more than 100 µM in each case. Also, the TGI with SNB-75 CNS, in the test with HT29 colon, in the test on NCI-H522 lung, with SK-MEL-28 melanoma, with NCI/ADR-RES ovarian and in the test with M14 melanoma was more than 100 µM each time. Moreover, the TGI in the test on IGROV1 ovarian, in the test with KM12 colon, in the test with SK-OV-3 ovarian, with SF-539 CNS, in the test with SW-620 colon and in the test on NCI-H460 lung was more than 100 µM in each case.

As for `CC1CN(c2cc3c(cc2F)c(=O)c(C(=O)O)cn3-c2ccc(F)cn2)CC(C)N1` (configuration not stated), the TGI in the test on HCT-15 colon, in the test on OVCAR-3 ovarian, in the test with CCRF-CEM leukemia, with OVCAR-8 ovarian, in the test with UO-31 renal and in the test with A498 renal was more than 100 µM each time. Also, the TGI with SNB-75 CNS, in the test with HT29 colon, in the test on NCI-H522 lung, in the test with SK-MEL-28 melanoma, in the test with NCI/ADR-RES ovarian and in the test with M14 melanoma was more than 100 µM in each case. Further, the TGI with IGROV1 ovarian, in the test on KM12 colon, with SK-OV-3 ovarian, with SF-539 CNS, in the test on SW-620 colon and in the test on NCI-H460 lung was more than 100 µM throughout.

Regarding `O=C1/C(=C/c2ccc(Oc3ccccc3)cc2)N=C(c2ccccc2)N1c1ccc(S(=O)(=O)Nc2nccs2)cc1`, the TGI was 70.1 µM with HCT-15 colon; more than 100 µM in the test on OVCAR-3 ovarian; more than 100 µM with CCRF-CEM leukemia; 78.2 µM in the test on UO-31 renal; 16.1 µM in the test with SK-MEL-2 melanoma; 82 µM in the test with A498 renal. Besides, the TGI was 58.1 µM in the test with SNB-75 CNS; 72.6 µM in the test on HT29 colon; more than 100 µM with SK-MEL-28 melanoma; 46.6 µM with NCI/ADR-RES ovarian; 72.3 µM in the test on M14 melanoma; 53.7 µM in the test with KM12 colon. In addition, the TGI in the test with SK-OV-3 ovarian, in the test with SF-539 CNS, with SW-620 colon and in the test on NCI-H460 lung was more than 100 µM each time.

Regarding `CC1(c2ccc(Cl)s2)CC(c2ccc(Cl)s2)=C(C#N)C(=C(C#N)C#N)N1` (configuration not stated), the TGI in the test with HCT-15 colon was 35.4 µM; with OVCAR-3 ovarian, 28.4 µM; in the test with CCRF-CEM leukemia, more than 100 µM; with OVCAR-8 ovarian, 50.4 µM; in the test on UO-31 renal it was 34.5 µM; with SK-MEL-2 melanoma, 47.2 µM. Besides, the TGI in the test on A498 renal was 37.8 µM; in the test with SNB-75 CNS it was 38.6 µM; with HT29 colon, 36.8 µM; with SK-MEL-28 melanoma, 50.5 µM; in the test with NCI/ADR-RES ovarian it was 38.8 µM; in the test on M14 melanoma it was 36.4 µM. The TGI with IGROV1 ovarian worked out at 35.3 µM; with KM12 colon, 36 µM; with SK-OV-3 ovarian it was 30.5 µM; in the test on SF-539 CNS it was 68.7 µM; in the test with SW-620 colon it was 52.4 µM; in the test on NCI-H460 lung it was 82.6 µM.

`CN(C(=O)C1=CCC2(CC1)OCCO2)c1ccccc1I`: the TGI with HCT-15 colon, in the test on OVCAR-3 ovarian, with CCRF-CEM leukemia, in the test on OVCAR-8 ovarian, in the test with UO-31 renal and in the test on SK-MEL-2 melanoma was more than 100 µM in each case. Also, the TGI in the test on A498 renal, in the test with SNB-75 CNS, in the test on HT29 colon, with NCI-H522 lung, with SK-MEL-28 melanoma and in the test on NCI/ADR-RES ovarian was more than 100 µM each time. Also, the TGI with M14 melanoma, with IGROV1 ovarian, in the test on KM12 colon, with SK-OV-3 ovarian, with SW-620 colon and with NCI-H460 lung was more than 100 µM each time.

Turning to `Clc1ccc(OCc2nnc3sc(-c4ccc(-c5ccc(Cl)cc5Cl)o4)nn23)cc1`, the TGI with HCT-15 colon, with OVCAR-3 ovarian, in the test with CCRF-CEM leukemia, in the test on OVCAR-8 ovarian, in the test with UO-31 renal and in the test with SK-MEL-2 melanoma was more than 100 µM throughout. The TGI in the test with A498 renal was more than 100 µM; in the test on SNB-75 CNS, 31.3 µM; in the test with HT29 colon, more than 100 µM; with NCI-H522 lung, more than 100 µM; with SK-MEL-28 melanoma it was more than 100 µM; in the test with NCI/ADR-RES ovarian, more than 100 µM. For the same compound, the TGI with M14 melanoma, in the test on IGROV1 ovarian, with KM12 colon, with SK-OV-3 ovarian, with SW-620 colon and in the test on NCI-H460 lung was more than 100 µM throughout.

Consider `COc1cc2c(cc1OC)C(=O)C1(C2)[C@H](c2ccccc2)C2C(=O)c3cc(OC)c(OC)cc3C2[C@H]1c1ccccc1` (some centres not stated), for which the TGI in the test with HCT-15 colon, in the test on OVCAR-3 ovarian, in the test with CCRF-CEM leukemia, with OVCAR-8 ovarian, in the test with UO-31 renal and in the test on A498 renal was more than 100 µM each time. In addition, the TGI in the test with SNB-75 CNS, with HT29 colon, in the test on NCI-H522 lung, in the test on SK-MEL-28 melanoma, with NCI/ADR-RES ovarian and in the test with M14 melanoma was more than 100 µM throughout. Also, the TGI in the test with IGROV1 ovarian, in the test with KM12 colon, in the test on SK-OV-3 ovarian, in the test on SF-539 CNS, with SW-620 colon and in the test on NCI-H460 lung was more than 100 µM in each case.

On to `CSC1=NNC(SC)=NN1`, for which the TGI is 0.307 µM in the test with HCT-15 colon; 0.359 µM in the test on OVCAR-3 ovarian; more than 1 µM with CCRF-CEM leukemia; 0.812 µM in the test on OVCAR-8 ovarian; 0.328 µM in the test with UO-31 renal; 0.281 µM with SK-MEL-2 melanoma. The TGI in the test on A498 renal was more than 1 µM; with HT29 colon, 0.316 µM; in the test with NCI-H522 lung, 0.555 µM; with SK-MEL-28 melanoma, 0.326 µM; with NCI/ADR-RES ovarian it was more than 1 µM; in the test on M14 melanoma it was 0.335 µM. Further, the TGI with IGROV1 ovarian is 0.302 µM; in the test on KM12 colon, 0.376 µM; in the test with SK-OV-3 ovarian, 0.382 µM; in the test with SF-539 CNS, 0.413 µM; in the test with SW-620 colon it was 0.307 µM; with NCI-H460 lung, 0.385 µM.
